Source: PMC13371181, “A paracrine-to-autocrine shunt of GREM1 fuels colorectal cancer metastasis via ACVR1C” (Molecular Cancer, 2026)
Entries after “also recorded” stand apart in the source; their conditions may differ. Peptide text beside a SMILES is read from it.

How the values were obtained:
[1] = test system: GREM1–ACVR1C; experiment: Pull-down assay, blocking of GREM1–ACVR1C-ECD binding; parameters: species or system human; conditions: GREM1-His and ACVR1C-ECD-Fc, Coomassie Brilliant Blue
Method: Protein pull-down assay was performed using purified recombinant human His-tagged GREM1 protein and recombinant human ACVR1C-ECD and Fc chimera protein. Protein was enriched by Pierce Protein A magnetic beads (MCE, HY-K0202) or Ni Sepharose 6 Fast Flow (GE, 17531801) following the manufacturer’s instructions. Pulled-down proteins were detected by Coomassie Brilliant Blue staining.

[2] = target: T1, GREM1 (Homo sapiens, UniProt O60565); experiment: MST binding of ACVR1C peptide to GREM1-His; conditions: GREM1 for ACVR1C peptide versus ACVR1C-ECD
T1 construct: His; purchased R&D 5190-GR
T1 sequence (O60565 25-184): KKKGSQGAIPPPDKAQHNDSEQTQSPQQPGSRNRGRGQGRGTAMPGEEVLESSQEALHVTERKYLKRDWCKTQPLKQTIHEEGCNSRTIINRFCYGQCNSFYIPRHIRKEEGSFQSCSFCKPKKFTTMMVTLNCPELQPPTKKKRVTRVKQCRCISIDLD
Method: MST was carried out on a Monolith NT.115 instrument (NanoTemper Technologies GmbH, MO-L011). To evaluate ACVR1C-ECD or ACVR1C peptide or ACVR1C-ECD-double mutant (E85A/T101A) binding to GREM1-His or ACTIVIN B-His, an increasing concentration of purified ACVR1C-ECD-Fc protein (0–27.5 µM) or ACVR1C peptide (0–2.3 µM) or ACVR1C-ECD-double mutant (0–27.5 µM) was incubated with 50 nM red-fluorescently labeled (NanoTemper Technologies GmbH, MO-L011) GREM1-His protein (R&D, 5190-GR) or ACTIVIN B-His protein (SinoBiological, 10814-H08H). Experiments were carried out in a PBS buffer pH 7.4 using premium capillaries (NanoTemper Technologies GmbH, MO-K025).

[3] = test system: HCT116-luc cells; experiment: Spleen-to-liver metastasis model, HCT116-luc (pLV-GREM1) in NOG mice; format: in vivo, human cells in NOG mice; conditions: HCT116-luc (pLV-GREM1) injected in the spleen, ACVR1C peptide 10 mg/kg i.v. (tail vein) every other day from 48 h after cell injection, IVIS, n = 5 mice per group
Method: For spleen-to-liver metastasis model, 5 × 10^5 MC38-luc cells or MC38-luc (pLV-Grem1) cells were resuspended in 50 µL of PBS and injected into the spleen of GD mice or control mice (Grem1-CreER^T2/Rosa-LSL-DTA mice) (n = 5 mice in each group). 5 × 10^5 HCT116-luc cells carrying a pLV or pLV-GREM1 were resuspended in 50 µL of PBS and intrasplenically injected into NOG mice (n = 5 mice in each group). ACVR1C peptide was administered via tail vein injection at a dose of 10 mg/kg once every other day.

[4] = test system: GREM1; conditions: monoclonal antibodies; cited from earlier work
From the text: The advent of cancer genomics and precision medicine has enabled targeted therapies for advanced CRC, with agents against VEGF, EGFR, BRAF V600E, and HER2 showing efficacy in selected patient subsets. However, issues like limited bioavailability, resistance, and narrow indications restrict their broader use. Unlike mutation-specific targets, GREM1 is a widely expressed cytokine with sustained, context-dependent activity, making it a promising and potentially broadly applicable therapeutic target in CRC. Therapeutic targeting of GREM1 to date has focused largely on full neutralization str ...

| affinity compared with ACVR1C-ECD [2] | Compound | blocking of GREM1–ACVR1C binding [1] | liver metastasis [3] | liver metastasis ([3]; listed as GREM1-blocking peptide) | efficacy in preclinical models [4] |
| --- | --- | --- | --- | --- | --- |
| comparable to that for the ACVR1C-ECD | CC[C@H](C)[C@H](NC(=O)[C@H](CC(N)=O)NC(=O)[C@H](CC(N)=O)NC(=O)[C@H](CS)NC(=O)[C@H](Cc1ccccc1)NC(=O)[C@H](CC(=O)O)NC(=O)[C@@H](NC(=O)[C@H](Cc1ccccc1)NC(=O)[C@H](CS)NC(=O)[C@H](CS)NC(=O)[C@H](CCC(=O)O)NC(=O)[C@@H](N)[C@@H](C)O)[C@@H](C)O)C(=O)N[C@H](C(=O)N[C@@H](CC(C)C)C(=O)N[C@@H](Cc1c[nH]cn1)C(=O)N[C@@H](CC(C)C)C(=O)N1CCC[C@H]1C(=O)N[C@H](C(=O)N[C@@H](C)C(=O)O)[C@@H](C)O)[C@@H](C)O [ACVR1C peptide] (H-TECCFTDFCNNITLHLPTA-OH; N-terminus and C-terminus assumed) | significantly blocked the GREM1–ACVR1C binding; also recorded: blocked the interaction between GREM1 and ACVR1C-ECD | effectively suppressed the increase in liver metastasis induced by tumor-specific GREM1 overexpression | significantly impairs CRC metastasis in vivo | – |
| – | Ginisortamab: fully humanized anti-GREM1 monoclonal antibody | – | – | – | have shown efficacy in preclinical models |
